Source: ChEMBL document CHEMBL1201862, “PubChem BioAssay data set” (2004)
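Test compounds were applied to cells in 96-well plates for 48 hours at 5 doses. At the GI50, growth is halved.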 Active and inactive are the calls of the source. No stated cut-off is given here; in the data, active = GI50 up to about 1.1 µM and inactive = higher.

How the values were obtained:
Assay in all cases: DTP human tumour cell line panel, 48 h
786-0 = system: 786-0
A498 = system: A498
A549 = system: A549
ACHN = system: ACHN
BT-549 = system: BT-549
CAKI-1 = system: CAKI-1
CCRF-CEM = system: CCRF-CEM
COLO 205 = system: COLO 205
DU-145 = system: DU-145
EKVX = system: EKVX
HCC 2998 = system: HCC 2998
HCT-116 = system: HCT-116
HCT-15 = system: HCT-15
HL-60 = system: HL-60
HOP-62 = system: HOP-62
HOP-92 = system: HOP-92
Hs-578T = system: Hs-578T
IGROV-1 = system: IGROV-1
K562 = system: K562
KM12 = system: KM12
LOX IMVI = system: LOX IMVI
M14 = system: M14
MCF7 = system: MCF7
MDA-MB-231 = system: MDA-MB-231
MDA-MB-435 = system: MDA-MB-435
MOLT-4 = system: MOLT-4
Malme-3M = system: Malme-3M
NCI-H226 = system: NCI-H226
NCI-H23 = system: NCI-H23
NCI-H460 = system: NCI-H460
NCI-H522 = system: NCI-H522
NCI/ADR-RES = system: NCI/ADR-RES
OVCAR-3 = system: OVCAR-3
OVCAR-4 = system: OVCAR-4
OVCAR-5 = system: OVCAR-5
OVCAR-8 = system: OVCAR-8
PC-3 = system: PC-3
RPMI-8226 = system: RPMI-8226
RXF 393 = system: RXF 393
SF-268 = system: SF-268
SF-295 = system: SF-295
SF-539 = system: SF-539
SK-MEL-28 = system: SK-MEL-28
SK-MEL-5 = system: SK-MEL-5
SK-OV-3 = system: SK-OV-3
SN12C = system: SN12C
SNB-19 = system: SNB-19
SR = system: SR
SW-620 = system: SW-620
T47D = system: T47D
TK-10 = system: TK-10
U-251 = system: U-251
UACC-257 = system: UACC-257
UACC-62 = system: UACC-62
UO-31 = system: UO-31

Structure (SMILES): CC(C)(C)OC(=O)NCC(C#N)CNC(=O)OC(C)(C)C
- GI50 (786-0): > 100 µM (inactive)
- GI50 (A498): > 100 µM (inactive)
- GI50 (A549): > 100 µM (inactive)
- GI50 (ACHN): > 100 µM (inactive)
- GI50 (BT-549): > 100 µM (inactive)
- GI50 (CAKI-1): > 10 µM (inactive)
- GI50 (CCRF-CEM): > 100 µM (inactive)
- GI50 (COLO 205): > 100 µM (inactive)
- GI50 (DU-145): > 100 µM (inactive)
- GI50 (EKVX): > 100 µM (inactive)
- GI50 (HCC 2998): > 100 µM (inactive)
- GI50 (HCT-116): > 100 µM (inactive)
- GI50 (HCT-15): > 100 µM
- GI50 (HL-60): > 100 µM (inactive)
- GI50 (HOP-62): > 100 µM (inactive)
- GI50 (HOP-92): > 100 µM (inactive)
- GI50 (Hs-578T): > 100 µM (inactive)
- GI50 (IGROV-1): > 100 µM (inactive)
- GI50 (K562): > 100 µM (inactive)
- GI50 (KM12): > 100 µM (inactive)
- GI50 (LOX IMVI): > 100 µM (inactive)
- GI50 (M14): > 100 µM (inactive)
- GI50 (MCF7): > 100 µM (inactive)
- GI50 (MDA-MB-231): > 100 µM (inactive)
- GI50 (MDA-MB-435): > 100 µM (inactive)
- GI50 (MOLT-4): > 100 µM (inactive)
- GI50 (Malme-3M): > 100 µM (inactive)
- GI50 (NCI-H226): > 100 µM (inactive)
- GI50 (NCI-H23): > 100 µM (inactive)
- GI50 (NCI-H460): > 100 µM (inactive)
- GI50 (NCI-H522): > 100 µM (inactive)
- GI50 (NCI/ADR-RES): > 100 µM (inactive)
- GI50 (OVCAR-3): > 100 µM (inactive)
- GI50 (OVCAR-4): > 100 µM (inactive)
- GI50 (OVCAR-5): > 100 µM (inactive)
- GI50 (OVCAR-8): > 100 µM (inactive)
- GI50 (PC-3): > 100 µM (inactive)
- GI50 (RPMI-8226): > 100 µM (inactive)
- GI50 (RXF 393): > 100 µM (inactive)
- GI50 (SF-268): > 100 µM (inactive)
- GI50 (SF-295): > 100 µM (inactive)
- GI50 (SF-539): > 100 µM (inactive)
- GI50 (SK-MEL-28): > 100 µM (inactive)
- GI50 (SK-MEL-5): > 100 µM (inactive)
- GI50 (SK-OV-3): > 100 µM (inactive)
- GI50 (SN12C): > 100 µM (inactive)
- GI50 (SNB-19): > 100 µM (inactive)
- GI50 (SR): > 100 µM (inactive)
- GI50 (SW-620): > 100 µM (inactive)
- GI50 (T47D): > 100 µM (inactive)
- GI50 (TK-10): > 100 µM (inactive)
- GI50 (U-251): > 100 µM (inactive)
- GI50 (UACC-257): > 100 µM (inactive)
- GI50 (UACC-62): > 100 µM (inactive)
- GI50 (UO-31): > 100 µM (inactive)
